In brackets after ≈: the same amount, converted by molar mass.
Conditions: for aqueous solubility: pH 6.8

| MDR1-MDCK efflux ratio | intrinsic clearance, human liver microsomes | intrinsic clearance, rat liver microsomes | aqueous solubility | fraction unbound, human plasma | fraction unbound, rat plasma | SMILES |
| --- | --- | --- | --- | --- | --- | --- |
| 0.597 | 21.2 mL/min/kg | 444 mL/min/kg | 28.5 µg/mL (≈ 103 µM) | – | – | CC1(C)CN(CC(=O)NCC#N)c2cccc(Cl)c21 |
| 7.15 | 15.3 mL/min/kg | 376 mL/min/kg | 45.2 µg/mL (≈ 129 µM) | – | – | Cc1ccccc1COC1CN(C(=O)Cn2c(=O)[nH]c3ccccc32)C1 |
| 8.31 | ≤ 4.74 mL/min/kg | 291 mL/min/kg | 46.1 µg/mL (≈ 126 µM) | – | – | Cc1cc(C(=O)NCCC2=CSC3=NCCCN23)c2cccc(C)c2n1 |
| 21.7 | 44.9 mL/min/kg | 360 mL/min/kg | 86.4 µg/mL (≈ 218 µM) | – | – | CCOC(=O)Nc1ccc2c(c1)N(C(=O)CN(CC)CC)c1ccccc1CC2 |
| 18.1 | ≤ 4.74 mL/min/kg | 29.5 mL/min/kg | 7.6 µg/mL (≈ 18.7 µM) | 0.042 | 0.0241 | Nc1ncc(C(=O)NC2CN(C(=O)C3CC3)C2)c2ccc(-c3cccc(F)c3)nc12 |
| 8.27 | 12.6 mL/min/kg | 707 mL/min/kg | – | – | – | CCCc1ccc(-c2cccc(C(=O)N3CCN(CC(N)=O)CC3)c2)cc1 |
| 6.29 | 101 mL/min/kg | 513 mL/min/kg | 17 µg/mL (≈ 52.3 µM) | – | – | CC(C)C[C@@H](CO)n1cc(-c2ccccc2Cn2cccn2)nn1 |
| 2.57 | 24 mL/min/kg | 270 mL/min/kg | 36 µg/mL (≈ 108 µM) | – | – | CN(C)CCNc1c2c(c(C#N)c3nc4ccccc4n13)CCCC2 |
| 0.654 | 16.7 mL/min/kg | 47 mL/min/kg | 39.7 µg/mL (≈ 154 µM) | – | – | Clc1ccc2c(Oc3cccnc3)ncnc2c1 |
| 0.443 | ≤ 4.74 mL/min/kg | ≤ 10.7 mL/min/kg | 42.6 µg/mL (≈ 150 µM) | – | – | CC1(C)O[C@@](C)([C@H]2CC3(CCNCC3)CO2)CC[C@@H]1O |
| – | – | – | 15.8 µg/mL (≈ 45.8 µM) | – | – | CCc1cc(NC(=O)Cc2c(C)nc3nc(SC)nn3c2C)[nH]n1 |
| – | 6.3 mL/min/kg | 14.2 mL/min/kg | – | – | – | COCC(=O)N(CC1CCCO1)c1nc2c(s1)CCc1c-2cnn1C (configuration not stated) |
| 0.737 | ≤ 4.74 mL/min/kg | 29.4 mL/min/kg | 25.4 µg/mL (≈ 90.8 µM) | – | – | O=C(O)CNc1nc(-c2ccccc2)nc2ccccc12 |
| 45 | 239 mL/min/kg | 1730 mL/min/kg | 46.7 µg/mL (≈ 127 µM) | – | – | O=C(Cc1cccc2ccccc12)NCc1nnc2n1-c1ccccc1CC2 |
| 0.511 | 89.9 mL/min/kg | 377 mL/min/kg | 11.5 µg/mL (≈ 38.3 µM) | – | – | Cc1noc2ncc(C(=O)Nc3nc(C4CC4)cs3)cc12 |
| 29 | 61.3 mL/min/kg | 1030 mL/min/kg | 54.8 µg/mL (≈ 140 µM) | – | – | CC1Cc2ccccc2N1C(=O)CN1CCC(n2c(=O)[nH]c3ccccc32)CC1 (configuration not stated) |
| 0.843 | 73.8 mL/min/kg | 1080 mL/min/kg | – | 0.0168 | 0.0229 | C[C@@H]1Cc2ccccc2N1C(=O)Cn1nc(-c2cccc3ncccc23)oc1=O |
| 82.6 | ≤ 4.74 mL/min/kg | ≤ 10.7 mL/min/kg | – | – | – | CCN(Cc1nc(C)no1)C(=O)c1cc(C)c(C)n(C)c1=O |
| 0.825 | ≤ 4.74 mL/min/kg | 280 mL/min/kg | 40.1 µg/mL (≈ 129 µM) | – | – | CCCN1CCn2nc(-c3nc4cc(OC)ccc4[nH]3)cc2C1 |
| – | 150 mL/min/kg | 184 mL/min/kg | 23.9 µg/mL (≈ 98.2 µM) | – | – | COc1ncccc1NC(=O)c1cccc(C)n1 |
| – | – | – | – | – | 1 | COCCc1ccc(OCC(O)CNC(C)C)cc1 (configuration not stated) |
| 16.9 | 158 mL/min/kg | 2090 mL/min/kg | 26.9 µg/mL (≈ 75.9 µM) | – | – | C=C(C)COc1cccc(C(=O)NCc2nncn2C2CCCCC2)c1 |
| – | 230 mL/min/kg | 1490 mL/min/kg | – | – | – | Cc1ccc(S(=O)(=O)Nc2ccc3c(c2)c2c(n3S(=O)(=O)c3ccc(C)cc3)CCC2)cc1 |
| 1.31 | ≤ 4.74 mL/min/kg | ≤ 10.7 mL/min/kg | 54.4 µg/mL (≈ 203 µM) | – | – | O=C1CCCN1c1ccc(NCc2ccccn2)nc1 |
| 1.72 | ≤ 4.74 mL/min/kg | ≤ 10.7 mL/min/kg | 47 µg/mL (≈ 171 µM) | – | – | Cc1cc2cc(C(=O)N(C)CCC(=O)O)oc2cc1C |
| – | 16.1 mL/min/kg | 62.4 mL/min/kg | 54 µg/mL (≈ 231 µM) | – | – | Nc1cnn(CC(=O)Nc2ccc(F)cc2)c1 |
| 0.667 | ≤ 4.74 mL/min/kg | 49.9 mL/min/kg | – | – | – | Cc1cccc(NCCN2C(=O)CCC2=O)n1 |

| MDR1-MDCK efflux ratio | intrinsic clearance, human liver microsomes | intrinsic clearance, rat liver microsomes | aqueous solubility | fraction unbound, human plasma | fraction unbound, rat plasma | SMILES |
| --- | --- | --- | --- | --- | --- | --- |
| 29 | ≤ 4.74 mL/min/kg | ≤ 10.7 mL/min/kg | – | – | – | COc1cc2nc(CN3CCC(CO)CC3)[nH]c(=O)c2cc1OC |
| 0.296 | 54.8 mL/min/kg | 1060 mL/min/kg | – | – | – | NC(=O)COc1ccccc1C(=O)Nc1cccc(-c2ccc3ccccc3c2)n1 |
| 0.317 | 256 mL/min/kg | 747 mL/min/kg | 44.9 µg/mL (≈ 132 µM) | – | – | FC(F)(F)c1nccc(NCCSc2nc3ccccc3o2)n1 |
| 2.54 | ≤ 4.74 mL/min/kg | 154 mL/min/kg | 42.4 µg/mL (≈ 137 µM) | – | – | Cn1ccc(NC(=O)[C@H]2CCCCN2C(=O)OC(C)(C)C)n1 |
| – | 173 mL/min/kg | 916 mL/min/kg | 11.3 µg/mL (≈ 45.8 µM) | – | – | Cc1csc(NC(=O)c2cccc(C)c2C)n1 |
| 2.07 | 7.42 mL/min/kg | 308 mL/min/kg | – | – | – | CC1(CNC(=O)N2CCN(Cc3ccon3)CC2)CCCC1 |
| 85.5 | 9.79 mL/min/kg | 210 mL/min/kg | – | 0.00892 | 0.00491 | C=CC(=O)Nc1cccc(Oc2nc(Nc3ccc(N4CCN(C)CC4)cc3)nc3ccsc23)c1 |
| 28.3 | ≤ 4.74 mL/min/kg | 366 mL/min/kg | 57.5 µg/mL (≈ 160 µM) | – | – | CCCCc1nc2cc(/C=C/C(=O)NO)ccc2n1CCN(CC)CC |
| 3.07 | – | – | 0.15 µg/mL (≈ 0.347 µM) | – | – | CN(C)S(=O)(=O)N1CCC(c2ccc3c(NCc4ccccc4F)n[nH]c3n2)CC1 |
| 6.82 | ≤ 4.74 mL/min/kg | ≤ 10.7 mL/min/kg | 48.9 µg/mL (≈ 154 µM) | – | – | Cc1c(C(=O)NC2CCN(CC3CCCCC3)CC2)cnn1C |
| 0.579 | ≤ 4.74 mL/min/kg | 2980 mL/min/kg | – | – | – | CCS(=O)(=O)N(C)c1ccc(N(C)C)cc1 |
| – | – | – | 66.8 µg/mL (≈ 195 µM) | – | – | CCc1cc2c(N3CCN(Cc4nccn4C)CC3)ncnc2s1 |
| 0.576 | 131 mL/min/kg | 1280 mL/min/kg | – | – | – | CN(Cc1nc2c(s1)CCCC2)c1cnccn1 |
| 25.1 | 464 mL/min/kg | 1250 mL/min/kg | – | 0.11 | 0.14 | CN(C)C(=O)C1(Cc2ccccc2-c2ccccc2)CCN(C(=O)c2cnn(C)c2)CC1 |
| 49.4 | ≤ 4.74 mL/min/kg | ≤ 10.7 mL/min/kg | 34.8 µg/mL (≈ 125 µM) | – | – | CCN(C(=O)CN1CCNC(=O)C1)c1ccc(F)cc1 |
| – | 180 mL/min/kg | 727 mL/min/kg | 33.5 µg/mL (≈ 102 µM) | – | – | Cc1cccc2cc(C(=O)NCCSc3nccn3C)n(C)c12 |
| – | 54 mL/min/kg | 462 mL/min/kg | 43.2 µg/mL (≈ 146 µM) | – | – | Cc1cccnc1NC(=O)c1csc(-c2ccccc2)n1 |
| 24.8 | – | – | 0.14 µg/mL (≈ 0.296 µM) | – | – | CC(C)(O)CNc1nc(Nc2ccnc(C(F)(F)F)c2)nc(-c2cccc(C(F)(F)F)n2)n1 |
| – | 39.1 mL/min/kg | 304 mL/min/kg | – | – | – | Cc1nccc(-c2cccc(NCC(=O)Nc3ccc(F)cc3)c2)n1 |
| 0.68 | ≤ 4.74 mL/min/kg | 119 mL/min/kg | 34.7 µg/mL (≈ 122 µM) | – | – | CC(C)(C)c1nc(Cn2nnc3ccccc3c2=O)no1 |
| 9.02 | ≤ 4.74 mL/min/kg | 19.3 mL/min/kg | 27 µg/mL (≈ 95.6 µM) | – | – | Cc1ccc2nc(C)c(-c3nc(C)nn3CCO)cc2c1 |
| 24.4 | ≤ 4.74 mL/min/kg | 238 mL/min/kg | – | – | – | CC(C)c1nccn1Cc1nc2ccccc2[nH]1 |
| 0.751 | – | – | 31.3 µg/mL (≈ 126 µM) | – | – | COc1ccc(-c2csc(CC(N)=O)n2)cc1 |
| 0.91 | ≤ 4.74 mL/min/kg | ≤ 10.7 mL/min/kg | 56.5 µg/mL (≈ 250 µM) | – | – | Cc1cc(NC(=O)C2CCOCC2)sn1 |
| – | 276 mL/min/kg | 285 mL/min/kg | 7.52 µg/mL (≈ 30.3 µM) | – | – | Cc1ccc(NC(=O)c2cc(F)cc(F)c2)nc1 |
| – | – | – | 0.25 µg/mL (≈ 0.72 µM) | – | – | COc1ccc(-c2onc(C)c2-c2cnn(-c3ccccc3)c2)c(O)c1 |
| 61.1 | 20.4 mL/min/kg | 101 mL/min/kg | 40.1 µg/mL (≈ 93.6 µM) | – | – | O=C(C1CC1)N1CC[C@@H](Cc2n[nH]c(=O)n2-c2ccc(-c3ccc4occc4c3)cc2)C1 |

| SMILES | MDR1-MDCK efflux ratio | intrinsic clearance, human liver microsomes | intrinsic clearance, rat liver microsomes | aqueous solubility | fraction unbound, human plasma | fraction unbound, rat plasma |
| --- | --- | --- | --- | --- | --- | --- |
| CCn1c(SC)nnc1C1CCN(C)CC1 | 7.45 | ≤ 4.74 mL/min/kg | ≤ 10.7 mL/min/kg | 41.2 µg/mL (≈ 171 µM) | – | – |
| COc1ccc2nc3c(cc2c1)CNCCO3 | 0.504 | 18.1 mL/min/kg | 82.4 mL/min/kg | – | – | – |
| Fc1ccc(-c2nnc(CN3CCC(c4c[nH]c5ccccc45)CC3)o2)cc1 | – | 29.3 mL/min/kg | 230 mL/min/kg | 8 µg/mL (≈ 21.3 µM) | – | – |
